Experimental data published in patent US20250026765A1, “SPIROHETEROCYCLE DERIVATIVE HAVING SEROTONIN RECEPTOR BINDING ACTIVITY” (Shionogi & Co., Ltd., priority 2021, published 2025).
Where two headings read alike, the source gives them in different places.

Legend:
[1] = target: human recombinant 5-HT2C receptor (Homo sapiens (Human), UniProt P28335); assay: 5-HT2C receptor binding inhibition test ([3H]-Mesulergine); conditions: Jump-In HEK cell membrane, 37° C. 2 hours
Method: Test Example 2: 5-HT2C Receptor Binding Inhibition Test
(§1) (Each Experimental Condition)
Cell membrane: 0.5 μg of Jump-In HEK cell membrane (expressing human recombinant 5-HT2C receptor) per well
(§2) Assay buffer: Tris-HCl 50 mmol/L (pH 7.4) containing NaCl 120 mmol/L, MgCl2·6H2O 1 mmol/L, KCl 5 mmol/L, 0.1% BSA and CaCl2 2 mmol/L
Radioactive ligand: [^3H]-Mesulergine with a final concentration of around Kd value calculated by the following method
Non-specific ligand: Serotonin HCl with a final concentration of […]
(§3) The Kd value is calculated when the lot of cell membrane is changed. In advance, 0.5 μL of a 1 mmol/L compound for non-specific binding calculation dissolved in DMSO or DMSO is dispensed into a microplate, and the cell membrane is diluted with an Assay buffer. The radioactive ligand solution is serially diluted and the count is confirmed with a liquid scintillator. Assay buffer containing diluted cell membrane is dispensed into a microplate at 50 μL/well. Then, the radioactive ligand solution is dispensed into a microplate at 50 μL/well, and the plate is sealed. It is allowed to stand at 37° C. for 2 hours. During this period, 50 mmol/L Tris-HCl (pH 7.4) is dispensed into a GF/B UniFilter plate at 50 μL/well and allowed to stand at 4° C. for 1 hour or longer. After that, filtration is performed with Cell harvester (PerkinElmer). The radioactive ligand solution is dispensed into an empty well of the GF/B UniFilter plate at 10 μL/well. After the GF/B UniFilter plate is dried at room temperature, MicroScinti 20 is dispensed into the GF/B UniFilter plate at 50 μL/well to seal the plate. The GF/B UniFilter plate is allowed to stand overnight at room temperature. The radioactivity of [^3H]-Mesulergine bound to the 5-HT2C receptor is measured using Microbeta2 (PerkinElmer) at a measurement time of 1 min/well. The Saturation curve is drawn from the measured value, and the Kd value is calculated from the slope of the Scatchard Plot.
(§4) (Binding Test of the Compound According to the Present Invention)
In advance, 0.5 μL of the compound solution dissolved in DMSO is dispensed into a microplate, and the cell membrane and the hot ligand are diluted with Assay buffer, respectively. Then, the Assay buffer containing the diluted cell membrane is dispensed into a microplate at 50 μL/well. Then, the radioactive ligand solution is dispensed into a microplate at 50 μL/well, and the plate is sealed. Then, it is allowed to stand at 37° C. for 2 hours. During this period, 50 mmol/L Tris-HCl (pH 7.4) is dispensed into a GF/B UniFilter plate at 50 μL/well and allowed to stand at 4° C. for 1 hour or longer. After that, filtration is performed with Cell harvester (PerkinElmer). After the GF/B UniFilter plate is dried at room temperature, MicroScinti 20 is dispensed into the GF/B UniFilter plate at 50 μL/well, and the plate is sealed. The GF/B UniFilter plate is allowed to stand overnight at room temperature. The radioactivity of [^3H]-Mesulergine bound to the 5-HT2C receptor is measured using Microbeta2 (PerkinElmer) at a measurement time of 1 min/well. The non-specific binding is calculated from the radioactivity of […] in the presence of 500 μmol/L Serotonin HCl which is the unlabeled ligand, and the total binding is calculated from the radioactivity of [^3H]-Mesulergine in the absence of the compound according to the present invention (Vehicle). Finally, the Ki value is calculated from the dose-response curve.
(§5) (The binding activity of the compound according to the present invention is calculated from the following binding inhibition rate (%).)
(§6) [formula] • a; mean cpm of non-specific binding • b; average cpm of total binding • c; cpm in the presence of the test compound

[2] = target: human recombinant 5-HT2A receptor (Homo sapiens (Human), UniProt P28223); assay: 5-HT2A receptor binding inhibition test ([3H]-Ketanserin); conditions: Jump-In HEK cell membrane, 25° C. 1.5 hours
Method: Test Example 1: 5-HT2A Receptor Binding Inhibition Test
as §1
Cell membrane: 15 μg of Jump-In HEK cell membrane (expressing human recombinant 5-HT2A receptor) per well
as §2
Radioactive ligand: [^3H]-Ketanserin with a final concentration of around Kd value calculated by the following method
Non-specific ligand: Serotonin HCl with a final concentration of 500 μmol/L
as §3, with “at room temperature (25° C.)” for “at 37° C.”, “for 1.5” for “for 2”, “of [^3H]-Ketanserin” for “of [^3H]-Mesulergine”, “the 5-HT2A” for “the 5-HT2C”
as §4
In advance, 0.5 μL of the compound solution dissolved in DMSO is dispensed into a microplate, and the cell membrane and the hot ligand are diluted with Assay buffer, respectively. Then, the Assay buffer containing the diluted cell membrane is dispensed into a microplate at 50 μL/well. Then, the radioactive ligand solution is dispensed into a microplate at 50 μL/well, and the plate is sealed. Then, it is allowed to stand at room temperature (25° C.) for 1.5 hours. During this period, 50 mmol/L Tris-HCl (pH 7.4) is dispensed into a GF/B UniFilter plate at 50 μL/well and allowed to stand at 4° C. for 1 hour or longer. After that, filtration is performed with Cell harvester (PerkinElmer). After the GF/B UniFilter plate is dried at room temperature, MicroScinti 20 is dispensed into the GF/B UniFilter plate at 50 μL/well to seal the plate. The GF/B UniFilter plate is allowed to stand overnight at room temperature. The radioactivity of [^3H]-Ketanserin bound to the 5-HT2A receptor is measured using Microbeta2 (PerkinElmer) at a measurement time of 1 min/well. The non-specific binding is calculated from the radioactivity of [^3H]-Ketanserin in the presence of 500 μmol/L Serotonin HCl which is the unlabeled ligand, and the total binding is calculated from the radioactivity of [^3H]-Ketanserin in the absence of the compound according to the present invention (Vehicle). Finally, the Ki value is calculated from the dose-response curve.
as §5, §6

[3] = read-out: human serotonin 5-HT2C receptor binding activity Ki
[4] = read-out: human serotonin 5-HT2A receptor binding activity Ki

Chain of human recombinant 5-HT2A receptor (P28223 whole entry): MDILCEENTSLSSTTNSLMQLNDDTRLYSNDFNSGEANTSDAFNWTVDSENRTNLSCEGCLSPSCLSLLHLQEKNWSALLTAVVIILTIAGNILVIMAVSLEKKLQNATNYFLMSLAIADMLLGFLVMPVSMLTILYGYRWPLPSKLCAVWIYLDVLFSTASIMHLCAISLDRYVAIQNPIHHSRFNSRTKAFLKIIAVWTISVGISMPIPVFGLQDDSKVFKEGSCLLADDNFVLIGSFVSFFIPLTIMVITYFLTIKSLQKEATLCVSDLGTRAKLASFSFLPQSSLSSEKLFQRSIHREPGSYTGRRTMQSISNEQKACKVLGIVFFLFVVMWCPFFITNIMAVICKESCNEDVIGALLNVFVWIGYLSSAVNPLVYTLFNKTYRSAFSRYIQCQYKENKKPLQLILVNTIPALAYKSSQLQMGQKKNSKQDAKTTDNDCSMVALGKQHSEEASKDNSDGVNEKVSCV
Chain of human recombinant 5-HT2C receptor (P28335 33-458): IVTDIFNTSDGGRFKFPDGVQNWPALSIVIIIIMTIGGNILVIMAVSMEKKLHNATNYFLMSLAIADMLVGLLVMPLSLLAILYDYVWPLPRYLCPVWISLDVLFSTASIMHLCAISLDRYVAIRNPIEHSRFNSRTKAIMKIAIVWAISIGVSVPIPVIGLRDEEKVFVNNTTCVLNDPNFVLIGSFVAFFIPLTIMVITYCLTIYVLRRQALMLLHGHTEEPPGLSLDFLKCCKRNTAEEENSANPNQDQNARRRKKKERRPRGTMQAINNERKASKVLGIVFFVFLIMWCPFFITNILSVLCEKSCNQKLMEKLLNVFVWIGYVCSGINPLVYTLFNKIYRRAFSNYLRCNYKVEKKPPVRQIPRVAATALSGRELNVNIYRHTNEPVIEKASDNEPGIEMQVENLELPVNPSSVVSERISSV

Row | SMILES | Ki ([1]; read-out: h-5-HT2C Ki) [nM] | Ki ([2]; read-out: h-5-HT2A Ki) [nM] | Ki [1, 3] [nM] | Ki [2, 4] [nM]
1 | Cc1nc(CN(Cc2ccc(OCC(C)C)cc2)C2=NC(=O)C3(CCN(C)CC3)N2)co1 [Compound I-039] | < 10 | 10 to 100 |  | 
2 | CCCCc1ccc(CN(Cc2cnn(C)n2)C2=NOC3(CCN(C)CC3)N2)cc1 [Compound I-133] | < 10 | < 10 |  | 
3 | CN1CCC2(ON=C(Cc3ccc(OC4CC4)cc3)N2Cc2ccn(C)n2)C2(CC2)C1 (racemic) [Compound I-041] | < 10 | < 10 |  | 
4 | CC(C)COc1ccc(CCC2=NOC3(CCN(C)CC3)N2Cc2ccc(F)cc2)cc1 [Compound I-008] | 100 to 500 | 10 to 100 |  | 
5 | Cc1nc(CN(Cc2ccc3c(c2)nnn3C)C2=NOC3(CCN(C)CC3)N2)co1 [Compound I-093] | 100 to 500 | 100 to 500 |  | 
6 | Cn1ccc(CN2C(Cc3ccc(OC4CC4)cc3)=NOC23CCNCC32CC2)n1 (racemic) [Compound I-038] | < 10 | 10 to 100 |  | 
7 | CN1CCC2(CC1)NC(N(Cc1ccc(OCC(F)(F)F)cc1)Cc1coc(CF)n1)=NO2 [Compound I-132] | < 10 | < 10 |  | 
8 | Cc1cc(CN(Cc2ccc(OCC(C)C)cc2)C2=NOC3(CCN(C)CC3)N2)no1 [Compound I-075] | 100 to 500 | < 10 |  | 
9 | CC(C)COc1ccc(CN(Cc2ccccn2)C2=NOC3(CCN(C)CC3)N2)cc1 [Compound I-012] | 10 to 100 | < 10 |  | 
10 | Cc1nc(CN(Cc2nc3cc(Cl)ccc3o2)C2=NOC3(CCN(C)CC3)N2)co1 [Compound I-089] |  |  | 5.46 | 1.49
11 | COc1ccc2oc(CN(Cc3coc(C)n3)C3=NOC4(CCN(C)CC4)N3)nc2c1 [Compound I-088] | 10 to 100 | 10 to 100 |  | 
12 | Cc1cnc(CN(Cc2ccc(OCC(C)C)cc2)C2=NOC3(CCN(C)CC3)N2)o1 [Compound I-032] | 10 to 100 | 10 to 100 |  | 
13 | CCCCOc1ccc(CN(Cc2cnn(C)n2)C2=NOC3(CCN(C)CC3)N2)cc1F [Compound I-111] | < 10 | < 10 |  | 
14 | CN1CCC2(CC1)NC(N(Cc1ccc(OCC(F)(F)F)c(F)c1)Cc1coc(C3CC3)n1)=NO2 [Compound I-116] | < 10 | < 10 |  | 
15 | Cc1coc(CN(Cc2ccc(OCC(C)C)cc2)C2=NOC3(CCN(C)CC3)N2)n1 [Compound I-054] | 10 to 100 | < 10 |  | 
16 | CC(C)COc1ccc(CN(Cc2cnn(C)n2)C2=NOC3(CCN(C)CC3)N2)cc1 [Compound I-072] | < 10 | < 10 |  | 
17 | Cc1cc(CN(Cc2ccc(OCC(C)C)cc2)C2=NOC3(CCN(C)CC3)N2)co1 [Compound I-070] | < 10 | < 10 |  | 
18 | Cc1cnc(CN(Cc2ccc(OCC(C)C)cc2)C2=NC(=O)C3(CCN(C)CC3)N2)nc1 [Compound I-061] | 10 to 100 | 10 to 100 |  | 
19 | Cc1nc(CN(Cc2ccc(OCC(F)(F)F)cc2)C2=NOC3(CCN(C)CC3)N2)co1 [Compound I-047] | < 10 | < 10 |  | 
20 | CCCOc1ccc(CN(Cc2coc(C)n2)C2=NOC3(CCN(C)CC3)N2)c(Cl)c1 [Compound I-126] | < 10 | < 10 |  | 
21 | CC(C)COc1ccc(CN=C2NC(=O)CC3(CCN(C)CC3)N2Cc2ccc(F)cc2)cc1 [Compound I-005] |  |  | 219 | 85.3
22 | Cc1nc(CN(Cc2ccc(OCC(C)C)cc2)C2=NOC3(CCN(C)CC3)N2)cs1 [Compound I-017] | < 10 | < 10 |  | 
23 | CC(C)COc1ccc(CN(Cc2coc(-c3ccccc3)n2)C2=NOC3(CCN(C)CC3)N2)cc1 [Compound I-118] | 100 to 500 | 100 to 500 |  | 
24 | CCc1nc(CN(Cc2ccc(OCC(C)C)cc2)C2=NOC3(CCN(C)CC3)N2)co1 [Compound I-068] | < 10 | < 10 |  | 
25 | CN1CCC2(CC1)NC(N(Cc1cnn(C)n1)Cc1ccc(OCC(F)(F)C(F)(F)F)cc1F)=NO2 [Compound I-103] | < 10 | < 10 |  | 
26 | CC(C)COc1ccc(CN(Cc2ccc(F)cc2)C2=NC(=O)C3(CCN(C)CC3)N2)cc1 [Compound I-021] | 10 to 100 | < 10 |  | 
